The record followed here is patent US8993622B2, “Antiviral compounds” (Eirium AB, priority 2010, dated 2015).

The test system of data set [1] is Ad5. Put plainly: microbe, parasite or virus in culture. The format is cell-based, human adenovirus.
The subject of data set [2] is Ad11p. Put plainly: Quantitative real-time PCR of adenovirus DNA replication in A549 cells (Ad11p). The class given is cell-based, human adenovirus. The protocol:
Approximately 1×10^5 A549 cells were seeded in 24-well plates (Nunc) on the day before infection. On the day of infection, the cells in one well were counted to establish the amount of virions to be added. The growth medium was removed and compound and virus were added simultaneously to the cells in 700 μl DMEM with 0.75 g/l NaHCO3, 20 mM HEPES, 1×PEST, and 1% FBS. Compounds were added in concentrations ranging from 0.5 μM to 15 μM. The final concentration of DMSO was less than 1% in all samples. One pg of Ad virions was added per cell. The plate was incubated at 37° C. in 5% CO2 and 24 h after infection the cells were harvested, washed once, and resuspended in PBS. DNA was prepared from the samples using the QIAamp DNA Blood Mini Kit (QIAGEN, Solna, Sweden) according to the manufacturer's instructions. The design of primers and probes for analysis of various Ad types representing different adenovirus species with quantitative PCR has been described previously (Allard et al. 2001. Rapid typing of human adenoviruses by a general PCR combined with restriction endonuclease analysis. Journal Clinical Microbiology 39:498-505). Briefly, quantitative real-time PCR was carried out using a degenerate primer pair, Kadgen1 (forward)—Kadgen 2 (reverse) (5′-CWT ACA TGC ACA TCK CSG G-3′—SEQ ID NO:1, and 5′-CRC GGG CRA AYT GCA CCA G-3′—SEQ ID NO:2, respectively); DNA technology A/S, Aarhus, Denmark). This primer pair is specific for the conserved region of the Ad hexon gene and can detect all human Ads. Different FAM-TAMRA probes were used to quantitate Ads from different species: AdB1B2 (5′-6-FAM-AGGATGCTTCGGAGTACCTGAGTCCGG-TAMRA-3′—SEQ ID NO:3) for Ad11p (11) and AdC (5′-6-FAM-AGGACGCCTCGGAGTACCTGAGCCCCG-TAMRA-3′—SEQ ID NO:4) for Ad 5 (all from Applied Biosystems, Cheshire, UK). For Ads from species A, D, E and F the probe AdDF (5′-6-FAM-CCGGGCTCAGGTACTCCGAGGCGTCCT-3′—SEQ ID NO:5) was used (Applied Biosystems). Standard curves ranging from 5 to 5×10^5 genome copies were generated by serial dilution of known amounts of full-length Ad5 or Ad11 DNA. The Ad5 DNA standard was used for the AdDF probe system. […] The program for the real-time PCR was: 2 min at 50° C. to activate UNG, followed by amplification and quantitation (10 min at 95° C. and 40 cycles of 15 sec at 95° C., 1 min at 60° C.). […] Real-time PCR was performed in an ABI PRISM 7700 Sequence Detector (Applied Biosystems) and analyzed with Sequence Detector v1.7a software.
For orientation: Quantitative PCR measures a nucleic acid by following its amplification.

The subject of data set [3] is Ad31 (A). Put plainly: Quantitative real-time PCR of adenovirus DNA replication in A549 cells (Ad31). The format is cell-based. To be noted: Human adenovirus sp., read-out: % inhibition of DNA replication (SD). The method, then: (§1) Approximately 1×10^5 A549 cells were seeded in 24-well plates (Nunc) on the day before infection. On the day of infection, the cells in one well were counted to establish the amount of virions to be added. The growth medium was removed and compound and virus were added simultaneously to the cells in 700 μl DMEM with 0.75 g/l NaHCO3, 20 mM HEPES, 1×PEST, and 1% FBS. Compounds were added in concentrations ranging from 0.5 μM to 15 μM. The final concentration of DMSO was less than 1% in all samples. One pg of Ad virions was added per cell. The plate was incubated at 37° C. in 5% CO2 and 24 h after infection the cells were harvested, washed once, and resuspended in PBS. […] The design of primers and probes for analysis of various Ad types representing different adenovirus species with quantitative PCR has been described previously (Allard et al. 2001. Rapid typing of human adenoviruses by a general PCR combined with restriction endonuclease analysis. Journal Clinical Microbiology 39:498-505). Briefly, quantitative real-time PCR was carried out using a degenerate primer pair, Kadgen1 (forward)—Kadgen 2 (reverse) (5′-CWT ACA TGC ACA TCK CSG G-3′—SEQ ID NO:1, and 5′-CRC GGG CRA AYT GCA CCA G-3′—SEQ ID NO:2, respectively); DNA technology A/S, Aarhus, Denmark). […] Real-time PCR was performed in an ABI PRISM 7700 Sequence Detector (Applied Biosystems) and analyzed with Sequence Detector v1.7a software.

Data set [4] has as its system Ad4 (E). Put plainly: Quantitative real-time PCR of adenovirus DNA replication in A549 cells (Ad4). The class given is cell-based. To be noted: Human adenovirus sp., read-out: % inhibition of DNA replication (SD). The protocol: as §1
The test system of data set [5] is HSV-1. As to the kind of experiment: qPCR of herpes simplex 1 replication in GMK cells. To be noted: 24 h. The format is cell-based, Herpes simplex virus 1. The protocol:
Same procedure as for qPCR for adenovirus quantification was followed with the exception of a few steps. Namely, 7×10^4 green monkey kidney (GMK) cells were seeded in 24-well plate the day before infection. Seventy-five virus particles of HSV-1 (stock 1351-95 P13) were added per cell. After 24 h incubation with the compound A02 at 37° C. in 5% CO2, the cells were harvested and DNA was prepared from 200 μL of the total 500 μL well-volume to include the DNA of possible released HSV-1 particles. The primers used in the qPCR assay were; Rune 1 (sense—position 137680-137697 in HSV-1 genome) (5′-GGC CTG GCT ATC CGG AGA-3′—SEQ ID NO:6) and Rune 2 (antisense—position 137742-137726 in HSV-1 genome) (5′-GCG CAG AGA CAT CGC GA-3′—SEQ ID NO:7), the final concentration in the reaction mixture of the primers were 300 nM. As in the adenovirus quantification a FAM-TAMRA labeled probe was used; Rune 3 (5′-CAGCACACGACTTGGCGTTCTGTGT-3′—SEQ ID NO:8) to a final concentration of 175 nM in the reaction mixture.

Data set [6] concerns cells. As to the kind of experiment: Cellular toxicity of select compounds (% dead cells, CC50). The class given is cell-based. The note with it: 24 h.
[7] abbreviates: Human adenovirus sp., A549, read-out: % inhibition of DNA replication (SD).

The structures appear in SMILES notation. Like-named read-outs stand apart in the source and are kept apart here.

As a reminder, the IC50 is the concentration at which inhibition is half-maximal. For orientation: EC50 means the concentration giving half of the maximal effect. Read a high EC50 as weaker potency. Consider `O=C(Nc1ccccc1C(=O)Nc1ccccc1C(=O)O)c1ccccc1` [Compound A02, 2-[[2-(Benzoylamino)benzoyl]amino]-benzoic acid], for which, in data set [1] (A549 cells), the “effect on the replication of Ad5 (QPCR)” value is on record as “significant inhibitory effect”. Further, the “selectivity index (SI=CC50/IC50) for Ad5” value in data set [1] (A549 cells) stood at 54. The IC50 in data set [1] (Human adenovirus sp., A549, 24 h, read-out: IC50 for Ad5 replication (QPCR)) turned out to be 3.7 µM; in data set [2] (Human adenovirus sp., 24 h, read-out: IC50 for Ad11p replication (QPCR)), 2.9 µM. The inhibition at 5 µM in data set [1] (setting [7]) worked out at 72%; in data set [1] (unidentified adenovirus, A549, read-out: % Inh. at 5 μM), 89 ± 5%; in data set [2] (Human adenovirus sp., Ad11p (B2), 5 μM, read-out: % inhibition of DNA replication (SD)), 79%; in data set [3] (5 μM) it was 86%; in data set [4] (5 μM) it was 85%. Moreover, the inhibition at 15 µM in data set [1] (setting [7]) was 86%; in data set [1] (unidentified adenovirus, A549, read-out: % Inh. at 15 μM), 96 ± 1%; in data set [2] (Human adenovirus sp., Ad11p (B2), 15 μM, read-out: % inhibition of DNA replication (SD)) it was 79%; in data set [3] (15 μM) it was 98%; in data set [4] (15 μM), 96%. A half-maximal effect in data set [1] (unidentified adenovirus, A549) (EC50) was put at 3.7 µM. Besides, the “selectivity index (SI=CC50/IC50) for Ad11p” value in data set [2] came to 68. Further, in data set [5], the “inhibitory effect on herpes simplex 1 replication” value is listed as “about the same as observed with the representatives of all the six human adenovirus species”. In data set [6] (30 μM), the “Toxicity at 30 μM (% dead cells after 24 h)” value was 20 ± 7%. Also, in data set [6] (60 μM), the “Toxicity at 60 μM (% dead cells after 24 h)” value was 29 ± 3%.
